Experimental data taken from patent US20100204295A1, “TREATMENT OF ALLERGIC DISEASE WITH IMMUNOMODULATOR COMPOUNDS” (SCICLONE PHARMACEUTICALS, INC., priority 2007, published 2010).

How the values were obtained:
[1] = tested on: interleukin-4; assay: ConA-induced IL-4 production by splenocytes after intra-abdominal SCV-07; type: in vivo, mice; settings: 1 μg/kg, five daily intra-abdominal injections; ConA 5 μg/mL
Procedure: SCV-07 was administered to intact wild mice in the form of five daily intra-abdominal injections at dosages of 0.1 and 1.0 μg/kg of body weight. After this, isolation of spleen cells was carried out the cytokine synthesis was induced in the culture by stimulating the cells with concanavalin A at a dosage of 5 μg/mL. The levels of the synthesized cytokines were determined by quantitative immunoenzyme analysis. […] The changes on ConA-induced production of two other [sic] cytokines—IFN-γ and IL-4, as is apparent from FIG. 1, were reciprocal in nature.

[2] = tested on: bone marrow cells; settings: cited from earlier work
[3] = tested on: goblet cells in the epithelium of the bronchi; assay: Percentage of goblet cells in the epithelium of the bronchi, ovalbumin asthma model; type: in vivo, mice of the Balb/C line
From the text: Female, non-pathogenic mice of the Balb/C line (“Pushchtino” laboratory animal breeders) were kept under conditions of an SPF-vivarium at a constant temperature, 12-hour day/night cycle, and received sterile feed and water ad libitum. In two series of experiments, mice from 6-8 weeks and 18-20 weeks of age were used at the beginning of the experiment, respectively. The animals were immunized twice at 5-day intervals with an ovalbumin solution (Sigma) in an adjuvant based on ammonium sulfate at a dosage of 8 μg per mouse. SCV-07 was administered intra-abdominally in a volume of 200 μL at a dosage of 0.1 or 1.0 μg/kg in PBS once a day from 6 through 11 days after the first immunization. The control group received physiological saline on the same days. Each group comprised 6 to 10 animals. On the 12th, 16th and 20th days after the first immunization, the animals were then placed in a hermetic box, in which an aerosol of 1% ovalbumin solution (OvA) in PBS was generated with an ultrasonic nebulizer LD-207U (Little Doctor) for 1 minute with continuous mixing of air. The duration of exposure of the animals to the aerosol was 15 minutes. […] The number of goblet and epithelial cells on the sections of the bronchi were calculated in no less than five visual fields on sections from the lungs from each animal and expressed as the percentage of the total number of cells.

[4] = tested on: eosinophils and neutrophils in the lung tissue; assay: Lung tissue eosinophil peroxidase (EPO) and myeloperoxidase (MPO), guinea pig model; type: in vivo, Dunkin-Hartley guinea pigs
Procedure: Animals were sensitized on day 0 ip with 50 mg/kg OVA. On Days 17, 18, 19, and 20, animals received an ip injection between 8 and 10 am with PBS, SCV-07 at 1 ug/kg, or SCV-07 at 10 ug/kg (Peptide treatment). Between 8 and 10 a.m. on Day 21, animals were administered peptide 2 hours before OVA or saline (NSS) aerosol challenge. 30 min before OVA or NSS aerosol challenge each animal was injected ip with an antihistamine (6.1 mg/kg pyrilamine maleate) to prevent death due to the anaphylactic response that accompanies aerosol OVA challenge. Animals were exposed to aerosol in pairs with either 1% OVA solution or NSS for 5 min in a plexiglass chamber (22×22×29 cm) using a DeVilbiss Model 35B Ultrasonic Nebulizer. Animals were observed during the total 5 min aerosolization and comments recorded. Within 22-24 hours after challenge, animals were euthanized, bled by cardiac puncture, lavaged and lung lobes removed for measurement of cellular infiltration. At the time of OVA or NSS challenge and euthanasia, animal weights ranged from approximately 350-550 g, with the average weight approximately 420 g. This experimental protocol is similar to that used in previously published studies (Regal and Fraser, 1996; Regal et al., 2000). Animals were euthanized with pentobarbital (100-200 mg/kg), bled by cardiac puncture, and lavaged with room temperature PBS. For bronchoalveolar lavage (BAL), the trachea was cannulated and 4 volumes of PBS were introduced into the tracheal cannula and gently withdrawn. Total lavage volume was 60 ml/kg. The BAL was centrifuged to sediment the cells, and the BAL cell pellet re-suspended in 1.0 ml PBS for determination of the total number of white blood cells (WBC) recovered in the BAL of each animal. The BAL supernatant was frozen at −70 C for determination of total protein recovered in the BAL supernatant using the method of Lowry et al. (1951). Total white blood cells in BAL were counted by standard methods in a hemacytometer using Turk's solution. Differential counts were obtained from cytospin preparations of BAL cells (3×10^4 cells) stained with a modified Wrights' stain (Diff Quik, American Scientific Products, McGraw Park, Ill.). Four hundred cells were counted and identified as eosinophils, neutrophils, or mononuclear cells. […] EPO activity from the homogenized lung after lavage was expressed as total OD/min from the left caudal lobe. MPO activity from the homogenized lung after lavage was expressed as total units of enzyme activity from the right caudal lobe. […] OD412 of the BAL supernatant was also determined to estimate the number of RBCS that were lysed during the lavage procedure and prior to re-suspension of the cells for counting. […]

[5] = tested on: spleen lymphocytes; settings: cited from earlier work
[6] = in vivo; cited from earlier work
[7] = tested on: 5-FU-immune-suppressed animals; settings: in vivo; cited from earlier work

N[C@H](CCC(=O)N[C@@H](Cc1c[nH]c2ccccc12)C(=O)O)C(=O)O [SCV-07, γ-D-glutamyl-L-tryptophan]
Change in ConA-induced production of IL-4 by the splenocytes [1]: two-fold reduction
Expression of Thy-1.2 on bone marrow cells [2]: stimulates expression
Reduction in the percentage of goblet cells in the epithelium of the bronchi vs control ([3]; 0.1 μg/kg, significant vs control): more than two-fold reduction
% goblet cells of total number of cells (median, minimum-maximum) ([3]; animals 6 to 8 weeks, 1 μg/kg): 36.5 (3-92) %
Lung MPO in animals challenged with NSS aerosol ([4]; 1 ug/kg, p<0.05 vs PBS NSS control): significantly reduced
Change in lung EPO from NSS to OVA vs PBS treatment ([4]; 10 ug/kg, ANOVA contrast): greater
Lung EPO in animals challenged with NSS aerosol ([4]; 10 ug/kg, p<0.05 vs PBS NSS control): significantly reduced
Change in lung MPO from NSS to OVA ([4]; ANOVA contrast vs PBS treatment): did not differ
Con-A-induced interleukin-2 (IL-2) production by spleen lymphocytes [5]: increases
IL-2 receptor expression by spleen lymphocytes [5]: increases
Non-toxic dose as multiple of the employed doses [6]: ≥ 100,000 times
Effect on 5-FU-immune-suppressed animals [7]: strong immunostimulatory effect
